Laboratory results taken from patent US20220288057A1, “CONJOINT THERAPY FOR TREATING SEIZURE DISORDERS” (XENON PHARMACEUTICALS INC., priority 2021, published 2022).
Read-outs that look alike come from different tables or passages of the source.

Test: Terminal plasma and brain concentrations in AC-MES studies (UHPLC-MS/MS)
Assay type: in vivo, mouse
Protocol: Sample Collection and Preparation: Mice were anesthetized by isoflurane inhalation (according to SOP TECH-018) until they reached a surgical plane of anesthesia. Then a syringe (1 mL syringe with a 22 gauge needle) was inserted under the sternum into the heart (according to SOP TECH-031). Approximately 0.5 mL of blood was collected, deposited into a K2EDTA tube, and stored on ice. Animals were then euthanized by cervical dislocation. Brains were removed, placed into a pre-weighed vial, and snap frozen on dry ice. At the end of the sample collection, blood was centrifuged at 4000 rpm for 10 minutes at 4° C., and the plasma pipetted into a labeled tube. All samples were stored in a −80° C. freezer until the time of bioanalysis.
Plasma Samples: Extraction of plasma samples was carried out by protein precipitation using acetonitrile. Diluted plasma samples (50 μL) were mixed with 50 μL of internal standard (IS) solution in 1:1 acetonitrile:water (v:v) followed by addition of 200 μL of acetonitrile. Samples were vortexed for 30 seconds, centrifuged at 13,000 rpm for 20 minutes, decanted into a 96-well plate and further centrifuged at 4000 rpm for 20 minutes. The samples were analyzed by ultra-high performance liquid chromatography electrospray ionization tandem mass spectrometry (UHPLC-ESI-MS/MS) as described in the bioanalysis procedure below.
Brain Samples: Prior to extraction, pre-weighed whole brains were homogenized in 1:1 acetonitrile:water (v:v) (2 mL per mouse brain) using an IKA T18 Ultra-Turrax Homogenizer at the setting of 4 for approximately 1 minute. The homogenate was centrifuged at 13,000 rpm for 20 minutes and 50 μL of the supernatant were treated exactly as described in above for plasma samples.
Bioanalysis Procedures: All samples, including plasma and brain homogenate extracts (including calibration standards and quality control (QC) samples prepared in K2EDTA mouse plasma), were extracted by protein precipitation. To each 50 μL aliquot of sample, 50 μL of IS solution (2500 ng/mL of Lacosamide in water:acetonitrile (1:1)) and 50 μL of 6% (v:v) phosphoric acid in water were added, then 200 μL acetonitrile was added. The samples in 1.7 mL tubes were vortex-mixed then centrifuged for 20 minutes at 13,000 rpm. Fifty microliters of the supernatant was mixed with 150 μL of water:acetonitrile (1:1) in a 96 well plate, which was centrifuged post-mixing for 20 minutes at 4000 rpm. The samples were then ready for UHPLC-MS/MS analysis.
Samples were analyzed for Compound A by a research-grade UHPLC-MS/MS method using the conditions listed below.
Samples were analyzed for Lacosamide by a research-grade UHPLC-MS/MS method using the conditions listed below.
At least three QC samples, one at each concentration, had to show back-calculated values within ±20% of their nominal concentrations for the whole sample batch to be valid.
The Blinding and Randomization, Clinical Observations, AC-MES Assay, Sample Collection and Preparation, Plasma and Brain Samples Analysis, and Bioanalysis Procedures in Example 4 were identical to those used in Example 2.
Sample concentration determination and Data Processing and Analysis in Example 4 was identical to Example 2.

In the case of `NC(=O)O[C@@H](Cn1ncnn1)c1ccccc1Cl` [Cenobamate, reference compound], the concentration at 2 h (CF-1, mouse, in vivo, 3 mg/kg, Study 4D, Cenobamate 3 mg/kg single oral dose, 2 h pre-treatment, CF-1 mice, read-out: Mean Brain) was 8.7 µM, the concentration at 2 h (CF-1, mouse, in vivo, 3 mg/kg, Study 4D, Cenobamate 3 mg/kg single oral dose, 2 h pre-treatment, CF-1 mice, read-out: Mean Plasma) was 29.6 µM and the concentration at 2 h (CF-1, mouse, in vivo, 3 mg/kg, Study 4E, Cenobamate 3 mg/kg single oral dose, 2 h pre-treatment, CF-1 mice, read-out: Mean Brain) was 12.2 µM. For the same compound, the concentration at 2 h (CF-1, mouse, in vivo, 3 mg/kg, Study 4E, Cenobamate 3 mg/kg single oral dose, 2 h pre-treatment, CF-1 mice, read-out: Mean Plasma) was 27.7 µM, the concentration at 2 h (CF-1, mouse, in vivo, 5 mg/kg, Study 4E, Cenobamate 5 mg/kg single oral dose, 2 h pre-treatment, CF-1 mice, read-out: Mean Brain) was 22.1 µM and the concentration at 2 h (CF-1, mouse, in vivo, 5 mg/kg, Study 4E, Cenobamate 5 mg/kg single oral dose, 2 h pre-treatment, CF-1 mice, read-out: Mean Plasma) was 53.6 µM. The concentration at 2 h (CF-1, mouse, in vivo, 5 mg/kg, Study 4F, Cenobamate 5 mg/kg PO, 2 h, alone, read-out: mean plasma concentration) was 31.3 µM, the concentration at 2 h (CF-1, mouse, in vivo, 5 mg/kg, Study 4F, Cenobamate 5 mg/kg PO alone, 2 h pre-treatment, CF-1 mice, read-out: Mean Brain) was 12 µM and the concentration at 2 h (CF-1, mouse, in vivo, 5 mg/kg, Study 4F, Cenobamate 5 mg/kg PO alone, 2 h pre-treatment, CF-1 mice, read-out: Mean Plasma) was 31.3 µM. It also gave a concentration at 2 h (CF-1, mouse, in vivo, 7.5 mg/kg, Cenobamate 7.5 mg/kg PO, 2 h, alone, read-out: mean plasma concentration) of 78.1 µM, a concentration at 2 h (CF-1, mouse, in vivo, 7.5 mg/kg, Study 4E, Cenobamate 7.5 mg/kg single oral dose, 2 h pre-treatment, CF-1 mice, read-out: Mean Brain) of 34.5 µM and a concentration at 2 h (CF-1, mouse, in vivo, 7.5 mg/kg, Study 4E, Cenobamate 7.5 mg/kg single oral dose, 2 h pre-treatment, CF-1 mice, read-out: Mean Plasma) of 78.1 µM. For the same compound, the concentration at 2 h (CF-1, mouse, in vivo, 10 mg/kg, Cenobamate 10 mg/kg PO, 2 h, alone, read-out: mean plasma concentration) was 87 µM, the concentration at 2 h (CF-1, mouse, in vivo, 10 mg/kg, Study 4D, Cenobamate 10 mg/kg single oral dose, 2 h pre-treatment, CF-1 mice, read-out: Mean Brain) was 26.8 µM and the concentration at 2 h (CF-1, mouse, in vivo, 10 mg/kg, Study 4D, Cenobamate 10 mg/kg single oral dose, 2 h pre-treatment, CF-1 mice, read-out: Mean Plasma) was 87 µM. For the same compound, the concentration at 2 h (CF-1, mouse, in vivo, Study 4G, analyte Cenobamate, 5 mg/kg + 0.5 mg/kg Compound A, read-out: mean total plasma concentration) was 41.1 µM, the concentration at 2 h (CF-1, mouse, in vivo, Study 4G, analyte Cenobamate, 5 mg/kg + 1 mg/kg Compound A, read-out: mean total plasma concentration) was 39.7 µM and the Kp at 2 h (CF-1, mouse, in vivo, po, 3 mg/kg, Study 4D, Cenobamate 3 mg/kg single oral dose, read-out: B/P Ratio (brain to plasma ratio)) was 0.29. For the same compound, the Kp at 2 h (CF-1, mouse, in vivo, po, 3 mg/kg, Study 4E, Cenobamate 3 mg/kg single oral dose, read-out: B/P Ratio (brain to plasma ratio)) was 0.44, the Kp at 2 h (CF-1, mouse, in vivo, po, 5 mg/kg, Study 4E, Cenobamate 5 mg/kg single oral dose, read-out: B/P Ratio (brain to plasma ratio)) was 0.41 and the Kp at 2 h (CF-1, mouse, in vivo, po, 5 mg/kg, Study 4F, Cenobamate 5 mg/kg PO alone, read-out: B/P Ratio (brain to plasma ratio)) was 0.38. The Kp at 2 h (CF-1, mouse, in vivo, po, 7.5 mg/kg, Study 4E, Cenobamate 7.5 mg/kg single oral dose, read-out: B/P Ratio (brain to plasma ratio)) was 0.44, the Kp at 2 h (CF-1, mouse, in vivo, po, 10 mg/kg, Study 4D, Cenobamate 10 mg/kg single oral dose, read-out: B/P Ratio (brain to plasma ratio)) was 0.31 and the Kp (CF-1, mouse, in vivo, po, 30 mg/kg, Study 4D, Cenobamate 30 mg/kg single oral dose, read-out: B/P Ratio (brain to plasma ratio)) was 0.3. For the same compound, the concentration at 2 h (Study 4D, Cenobamate 30 mg/kg single oral dose, CF-1 mice, read-out: Mean Brain) was 71.3 µM, the concentration at 2 h (Study 4D, Cenobamate 30 mg/kg single oral dose, CF-1 mice, read-out: Mean Plasma) was 237 µM and the “Mean Brain, Cenobamate” value (Study 4F, Cenobamate 5 mg/kg PO (2 h) in combination with Compound A 2 mg/kg PO (0.5 h)) was 14.7 µM. For the same compound, the “Mean Brain, Cenobamate” value (Study 4G, Cenobamate 5 mg/kg PO (2 h) in combination with Compound A 0.5 mg/kg PO (0.5 h)) was 18.1 µM and the “Mean Brain, Cenobamate” value (Study 4G, Cenobamate 5 mg/kg PO (2 h) in combination with Compound A 1 mg/kg PO (0.5 h)) was 17.0 µM.
